The values below come from patent publication US12479847B2 (DANA-FARBER CANCER INSTITUTE, INC., priority 2019, dated 2025).

Assay in all cases: KINOMEscan (ScanMAX) kinase profiling
Holding throughout (type): binding

For experiment [1], the target named is T1, panel of 468 kinases (Homo sapiens, UniProt P07949, V804L).
T1 construct: purchased KINOMEscan (ScanMAX) service
The settings on record: RET(V804L); 1 μM; read-out: % control.

Experiment [2] has as its target T2, panel of 468 kinases (Homo sapiens, UniProt Q14680).
T2 construct: purchased KINOMEscan (ScanMAX) service
The settings on record: MELK; 1 μM; read-out: % control.

The target of experiment [3] is T3, panel of 468 kinases (Homo sapiens, UniProt P16234).
T3 construct: purchased KINOMEscan (ScanMAX) service
The settings on record: PDGFRA; 1 μM; read-out: % control.

Experiment [4] deals with T4, panel of 468 kinases (Homo sapiens, UniProt P00533, L858R/T790M).
T4 construct: purchased KINOMEscan (ScanMAX) service
The settings on record: EGFR(L858R,T790M); 1 μM; read-out: % control.

Experiment [5] deals with T5, panel of 468 kinases (Homo sapiens, UniProt O94806).
T5 construct: purchased KINOMEscan (ScanMAX) service
T5 sequence (O94806 1-890): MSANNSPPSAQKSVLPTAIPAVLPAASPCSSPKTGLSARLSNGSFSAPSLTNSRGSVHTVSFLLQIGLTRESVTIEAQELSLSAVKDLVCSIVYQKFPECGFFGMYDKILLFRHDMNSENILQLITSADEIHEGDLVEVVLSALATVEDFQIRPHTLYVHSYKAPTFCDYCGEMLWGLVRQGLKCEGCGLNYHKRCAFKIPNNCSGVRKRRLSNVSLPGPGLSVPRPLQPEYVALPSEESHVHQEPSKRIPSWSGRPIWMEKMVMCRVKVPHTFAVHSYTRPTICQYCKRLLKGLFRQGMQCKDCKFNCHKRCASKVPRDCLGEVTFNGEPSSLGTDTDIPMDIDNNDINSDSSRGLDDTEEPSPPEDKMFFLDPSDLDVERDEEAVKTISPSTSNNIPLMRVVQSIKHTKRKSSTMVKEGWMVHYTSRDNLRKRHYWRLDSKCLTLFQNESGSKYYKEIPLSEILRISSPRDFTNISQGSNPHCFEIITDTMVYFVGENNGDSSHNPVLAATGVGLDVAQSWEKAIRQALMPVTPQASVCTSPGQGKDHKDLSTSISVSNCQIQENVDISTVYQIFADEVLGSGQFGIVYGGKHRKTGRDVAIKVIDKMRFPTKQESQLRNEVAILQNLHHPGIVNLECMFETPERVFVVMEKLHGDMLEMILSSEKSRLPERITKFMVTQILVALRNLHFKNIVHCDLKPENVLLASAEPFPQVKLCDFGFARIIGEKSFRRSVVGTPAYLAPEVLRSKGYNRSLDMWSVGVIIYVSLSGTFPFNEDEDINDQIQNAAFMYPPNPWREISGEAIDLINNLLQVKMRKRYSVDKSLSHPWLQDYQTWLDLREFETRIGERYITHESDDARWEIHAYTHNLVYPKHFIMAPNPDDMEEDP
The settings on record: PRKD3; 1 μM; read-out: % control.

Experiment [6] concerns the target T6, panel of 468 kinases (Homo sapiens, UniProt O00141).
T6 construct: purchased KINOMEscan (ScanMAX) service
T6 sequence (O00141 1-431): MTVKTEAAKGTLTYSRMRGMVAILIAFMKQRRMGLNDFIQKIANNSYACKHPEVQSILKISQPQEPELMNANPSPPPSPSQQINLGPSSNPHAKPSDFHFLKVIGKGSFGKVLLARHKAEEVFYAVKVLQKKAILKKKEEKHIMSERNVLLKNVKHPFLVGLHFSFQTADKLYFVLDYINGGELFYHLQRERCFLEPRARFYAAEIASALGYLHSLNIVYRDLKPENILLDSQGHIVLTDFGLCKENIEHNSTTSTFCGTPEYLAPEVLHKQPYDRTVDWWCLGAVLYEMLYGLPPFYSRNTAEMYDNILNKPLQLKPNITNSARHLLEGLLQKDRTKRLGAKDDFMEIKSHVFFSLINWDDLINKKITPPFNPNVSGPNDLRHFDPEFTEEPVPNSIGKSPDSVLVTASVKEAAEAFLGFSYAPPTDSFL
The settings on record: SGK; 1 μM; read-out: % control.

Experiment [7] has as its target T7, panel of 468 kinases (Homo sapiens, UniProt P17612).
T7 construct: purchased KINOMEscan (ScanMAX) service
The settings on record: PKAC-alpha; 1 μM; read-out: % control.

Experiment [8] deals with T8, panel of 468 kinases (Homo sapiens, UniProt Q04912).
T8 construct: purchased KINOMEscan (ScanMAX) service
The settings on record: MST1R; 1 μM; read-out: % control.

The target in experiment [9] is T9, panel of 468 kinases (Homo sapiens, UniProt Q9UM73, L1196M).
T9 construct: purchased KINOMEscan (ScanMAX) service
The settings on record: ALK(L1196M); 1 μM; read-out: % control.

The target in experiment [10] is T10, panel of 468 kinases (Homo sapiens, UniProt O15264).
T10 construct: purchased KINOMEscan (ScanMAX) service
T10 sequence (O15264 1-365): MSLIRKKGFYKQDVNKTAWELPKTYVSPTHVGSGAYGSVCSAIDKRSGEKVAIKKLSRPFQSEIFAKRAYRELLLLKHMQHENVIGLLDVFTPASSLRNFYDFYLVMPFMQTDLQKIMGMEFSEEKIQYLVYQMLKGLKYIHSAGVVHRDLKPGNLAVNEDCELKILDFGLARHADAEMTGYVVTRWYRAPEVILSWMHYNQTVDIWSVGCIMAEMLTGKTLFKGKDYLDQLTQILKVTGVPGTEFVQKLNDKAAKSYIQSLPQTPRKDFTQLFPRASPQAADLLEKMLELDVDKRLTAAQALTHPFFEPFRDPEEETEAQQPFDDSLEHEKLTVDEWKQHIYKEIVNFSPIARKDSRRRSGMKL
The settings on record: p38-delta; 1 μM; read-out: % control.

T9 sequence (Q9UM73 19-1620 L1196M): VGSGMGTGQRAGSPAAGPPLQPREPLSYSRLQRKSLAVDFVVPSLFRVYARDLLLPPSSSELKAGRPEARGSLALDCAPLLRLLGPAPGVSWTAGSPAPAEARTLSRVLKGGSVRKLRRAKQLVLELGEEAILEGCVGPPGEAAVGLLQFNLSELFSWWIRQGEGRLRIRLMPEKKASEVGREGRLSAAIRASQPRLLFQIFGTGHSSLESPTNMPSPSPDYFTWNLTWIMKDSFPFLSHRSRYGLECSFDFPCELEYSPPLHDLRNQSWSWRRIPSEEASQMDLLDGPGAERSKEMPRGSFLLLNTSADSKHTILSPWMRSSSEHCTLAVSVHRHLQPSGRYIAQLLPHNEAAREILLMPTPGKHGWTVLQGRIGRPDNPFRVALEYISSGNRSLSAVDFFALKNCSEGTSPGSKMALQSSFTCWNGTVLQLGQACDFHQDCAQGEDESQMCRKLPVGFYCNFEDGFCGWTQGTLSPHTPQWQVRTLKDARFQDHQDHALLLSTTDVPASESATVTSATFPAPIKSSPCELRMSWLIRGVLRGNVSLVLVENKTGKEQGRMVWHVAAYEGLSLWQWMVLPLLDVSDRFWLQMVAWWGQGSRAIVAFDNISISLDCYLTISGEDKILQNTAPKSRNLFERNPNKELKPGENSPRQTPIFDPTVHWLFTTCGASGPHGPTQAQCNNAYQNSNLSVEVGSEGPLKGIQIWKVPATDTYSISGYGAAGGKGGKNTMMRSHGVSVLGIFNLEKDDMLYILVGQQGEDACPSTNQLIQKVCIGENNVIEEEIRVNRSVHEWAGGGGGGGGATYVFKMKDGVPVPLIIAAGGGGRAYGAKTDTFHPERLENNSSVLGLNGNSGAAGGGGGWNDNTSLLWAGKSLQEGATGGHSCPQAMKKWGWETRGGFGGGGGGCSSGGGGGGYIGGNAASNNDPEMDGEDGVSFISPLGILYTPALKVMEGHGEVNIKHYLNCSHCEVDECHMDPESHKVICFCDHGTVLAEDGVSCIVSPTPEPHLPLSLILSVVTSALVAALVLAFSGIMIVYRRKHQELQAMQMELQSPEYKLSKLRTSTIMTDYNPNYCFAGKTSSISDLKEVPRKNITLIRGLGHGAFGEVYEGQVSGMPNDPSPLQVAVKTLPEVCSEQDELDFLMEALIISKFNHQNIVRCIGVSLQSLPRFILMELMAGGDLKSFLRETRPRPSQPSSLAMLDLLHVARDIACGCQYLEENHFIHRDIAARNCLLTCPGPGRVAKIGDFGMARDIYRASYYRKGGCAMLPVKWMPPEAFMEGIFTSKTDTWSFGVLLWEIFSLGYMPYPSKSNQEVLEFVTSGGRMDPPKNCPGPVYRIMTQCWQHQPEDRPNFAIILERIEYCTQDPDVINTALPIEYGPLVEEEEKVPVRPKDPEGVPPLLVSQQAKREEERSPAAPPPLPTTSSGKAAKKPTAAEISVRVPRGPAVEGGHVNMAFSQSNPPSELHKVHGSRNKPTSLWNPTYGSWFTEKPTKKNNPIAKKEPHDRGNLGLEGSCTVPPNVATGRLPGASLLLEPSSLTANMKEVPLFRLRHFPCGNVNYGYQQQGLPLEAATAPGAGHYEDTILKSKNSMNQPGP
T4 sequence (P00533 25-1210 T790M/L858R): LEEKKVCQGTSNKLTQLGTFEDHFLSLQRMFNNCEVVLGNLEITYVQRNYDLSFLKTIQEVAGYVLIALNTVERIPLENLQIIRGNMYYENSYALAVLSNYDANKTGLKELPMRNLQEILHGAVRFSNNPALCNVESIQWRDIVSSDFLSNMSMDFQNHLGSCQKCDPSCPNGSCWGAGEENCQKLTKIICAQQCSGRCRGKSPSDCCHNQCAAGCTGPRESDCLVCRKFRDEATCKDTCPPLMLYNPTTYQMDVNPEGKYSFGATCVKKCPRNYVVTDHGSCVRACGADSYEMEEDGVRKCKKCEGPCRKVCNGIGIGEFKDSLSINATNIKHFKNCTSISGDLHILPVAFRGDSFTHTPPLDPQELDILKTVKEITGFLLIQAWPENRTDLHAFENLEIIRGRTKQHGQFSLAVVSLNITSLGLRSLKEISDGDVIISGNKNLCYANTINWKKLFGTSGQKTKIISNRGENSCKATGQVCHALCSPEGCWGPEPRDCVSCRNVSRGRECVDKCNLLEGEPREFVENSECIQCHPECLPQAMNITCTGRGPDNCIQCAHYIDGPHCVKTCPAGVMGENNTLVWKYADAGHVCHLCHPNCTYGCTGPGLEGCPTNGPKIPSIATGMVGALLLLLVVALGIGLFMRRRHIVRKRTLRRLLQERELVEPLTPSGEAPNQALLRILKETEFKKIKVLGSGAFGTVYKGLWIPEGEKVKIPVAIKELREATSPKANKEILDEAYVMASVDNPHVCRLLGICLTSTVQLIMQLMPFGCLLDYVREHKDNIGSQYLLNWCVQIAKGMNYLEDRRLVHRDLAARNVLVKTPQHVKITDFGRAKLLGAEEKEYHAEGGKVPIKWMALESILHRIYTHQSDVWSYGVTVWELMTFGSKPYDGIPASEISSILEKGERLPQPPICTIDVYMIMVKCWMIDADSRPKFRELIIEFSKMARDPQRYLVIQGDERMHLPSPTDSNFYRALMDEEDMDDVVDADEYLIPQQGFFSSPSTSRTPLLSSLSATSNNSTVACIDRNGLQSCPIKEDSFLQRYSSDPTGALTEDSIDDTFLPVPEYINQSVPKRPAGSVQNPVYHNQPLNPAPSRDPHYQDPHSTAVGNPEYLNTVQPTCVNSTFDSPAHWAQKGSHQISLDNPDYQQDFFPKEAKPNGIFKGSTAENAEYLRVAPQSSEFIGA
T2 sequence (Q14680 whole entry): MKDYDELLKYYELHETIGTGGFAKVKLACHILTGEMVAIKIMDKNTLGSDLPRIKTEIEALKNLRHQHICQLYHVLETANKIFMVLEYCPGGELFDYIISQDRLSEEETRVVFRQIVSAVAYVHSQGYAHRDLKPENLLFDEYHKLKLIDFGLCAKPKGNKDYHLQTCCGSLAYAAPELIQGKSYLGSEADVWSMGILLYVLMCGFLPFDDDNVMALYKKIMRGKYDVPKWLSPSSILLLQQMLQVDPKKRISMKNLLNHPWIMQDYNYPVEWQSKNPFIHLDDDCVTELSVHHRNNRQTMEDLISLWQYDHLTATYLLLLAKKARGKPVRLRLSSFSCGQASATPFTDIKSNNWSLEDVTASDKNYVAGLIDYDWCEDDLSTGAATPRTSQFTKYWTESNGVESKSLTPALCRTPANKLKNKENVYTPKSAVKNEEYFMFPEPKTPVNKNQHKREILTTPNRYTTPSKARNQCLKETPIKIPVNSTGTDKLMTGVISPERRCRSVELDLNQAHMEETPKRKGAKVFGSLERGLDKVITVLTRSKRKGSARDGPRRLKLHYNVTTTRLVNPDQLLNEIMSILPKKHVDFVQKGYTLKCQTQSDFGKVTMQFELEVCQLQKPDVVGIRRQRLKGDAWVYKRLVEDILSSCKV
T8 sequence (Q04912 25-1400): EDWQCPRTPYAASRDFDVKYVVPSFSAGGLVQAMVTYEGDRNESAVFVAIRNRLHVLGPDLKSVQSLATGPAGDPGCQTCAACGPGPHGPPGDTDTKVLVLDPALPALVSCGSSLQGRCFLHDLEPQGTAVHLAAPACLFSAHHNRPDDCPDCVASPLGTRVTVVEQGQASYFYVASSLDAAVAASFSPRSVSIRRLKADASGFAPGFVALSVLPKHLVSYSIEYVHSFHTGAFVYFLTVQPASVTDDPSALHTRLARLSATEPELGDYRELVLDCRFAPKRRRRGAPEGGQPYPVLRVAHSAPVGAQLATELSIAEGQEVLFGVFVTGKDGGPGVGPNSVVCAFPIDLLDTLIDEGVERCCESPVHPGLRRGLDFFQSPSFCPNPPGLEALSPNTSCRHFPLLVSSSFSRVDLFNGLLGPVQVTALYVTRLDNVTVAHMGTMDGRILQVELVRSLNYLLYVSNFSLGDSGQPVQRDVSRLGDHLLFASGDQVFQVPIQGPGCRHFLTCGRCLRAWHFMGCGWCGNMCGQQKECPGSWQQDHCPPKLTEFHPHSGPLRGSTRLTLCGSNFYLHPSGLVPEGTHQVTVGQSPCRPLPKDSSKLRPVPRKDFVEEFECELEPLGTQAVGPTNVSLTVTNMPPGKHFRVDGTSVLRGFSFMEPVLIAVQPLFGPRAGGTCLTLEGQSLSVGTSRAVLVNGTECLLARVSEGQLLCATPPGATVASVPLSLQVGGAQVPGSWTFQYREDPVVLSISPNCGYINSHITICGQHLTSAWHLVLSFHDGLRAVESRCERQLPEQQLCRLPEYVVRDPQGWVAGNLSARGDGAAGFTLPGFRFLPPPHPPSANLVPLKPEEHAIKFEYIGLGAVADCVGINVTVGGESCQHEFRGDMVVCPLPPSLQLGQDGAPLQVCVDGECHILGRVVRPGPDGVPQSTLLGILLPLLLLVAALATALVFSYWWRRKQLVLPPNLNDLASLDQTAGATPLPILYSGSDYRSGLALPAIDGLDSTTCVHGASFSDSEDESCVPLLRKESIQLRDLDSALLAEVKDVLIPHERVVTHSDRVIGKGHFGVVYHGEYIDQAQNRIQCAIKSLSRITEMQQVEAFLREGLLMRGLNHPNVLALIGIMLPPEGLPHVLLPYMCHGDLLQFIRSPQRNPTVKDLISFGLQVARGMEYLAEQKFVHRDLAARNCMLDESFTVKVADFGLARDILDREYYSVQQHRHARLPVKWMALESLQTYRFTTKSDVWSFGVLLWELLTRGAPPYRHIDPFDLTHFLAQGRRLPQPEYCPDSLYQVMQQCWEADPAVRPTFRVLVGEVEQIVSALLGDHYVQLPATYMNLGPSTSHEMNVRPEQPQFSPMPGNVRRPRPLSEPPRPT

For the compound `CNc1nc(Nc2ccc(S(=O)(=O)N3CCC(N4CCOCC4)CC3)cc2OC)nc2[nH]cc(Cl)c12` [Compound 12, 5-chloro-N2-(2-methoxy-4-((4-morpholinopiperidin-1-yl)sulfonyl)phenyl)-N4-methyl-7H-pyrrolo[2,3-d]pyrimidine-2,4-diamine], the remaining binding at 1 µM on panel of 468 kinases [1] is 89%; at panel of 468 kinases [2], 100%; at panel of 468 kinases [3] it was 77%; on panel of 468 kinases [4], 66%; at panel of 468 kinases [5], 28%; on panel of 468 kinases [6] it was 89%. Further, the remaining binding at 1 µM turned out to be 100% at panel of 468 kinases [7], 100% at panel of 468 kinases [8], 11% on panel of 468 kinases [9] and 100% on panel of 468 kinases [10].
For the compound `CNc1nc(Nc2ccc(P3(=O)CCN(C4CCOCC4)CC3)cc2OC)nc2[nH]cc(Cl)c12` [Compound 77, 4-(4-((5-chloro-4-(methylamino)-7H-pyrrolo[2,3-d]pyrimidin-2-yl)amino)-3-methoxyphenyl)-1-(tetrahydro-2H-pyran-4-yl)-1,4-azaphosphinane 4-oxide], the remaining binding at 1 µM on panel of 468 kinases [1] is 100%; on panel of 468 kinases [2] it was 85%; at panel of 468 kinases [3], 69%; at panel of 468 kinases [4], 42%; at panel of 468 kinases [5], 13%; at panel of 468 kinases [6], 68%. In addition, the remaining binding at 1 µM on panel of 468 kinases [7] is 100%; on panel of 468 kinases [8] it was 100%; at panel of 468 kinases [9], 7.1%; on panel of 468 kinases [10], 100%.
As to `CNc1nc(Nc2ccc(C(=O)N3CCC(N4CCOCC4)CC3)c3c2OCO3)nc2[nH]cc(Cl)c12` [Compound 75, (7-((5-chloro-4-(methylamino)-7H-pyrrolo[2,3-d]pyrimidin-2-yl)amino)benzo[d][1,3]dioxol-4-yl)(4-morpholinopiperidin-1-yl)methanone], the remaining binding at 1 µM was found to be 42% on panel of 468 kinases [1]; 30% at panel of 468 kinases [2]; 67% at panel of 468 kinases [3]; 45% at panel of 468 kinases [4]; 4% at panel of 468 kinases [5]; 7.2% on panel of 468 kinases [6]. Further, the remaining binding at 1 µM at panel of 468 kinases [7] was 100%; on panel of 468 kinases [8] it was 100%; on panel of 468 kinases [9] it was 27%; on panel of 468 kinases [10] it was 100%.
